The target of the assay is Protein Kinase A (PKA) (Homo sapiens, UniProt P17612). Briefly: pulsed field mobility shift assay screening for Protein Kinase A (PKA) inhibitors. In kind it is biochemical. The note with it: from dose response curve (FIG. 10), 7 H9 concentrations 0.15-30.75 μM; pulsed field and standard (constant field) mobility shift assays predict same Ki; read-out: Ki value for the inhibitor. The method, then:
In an exemplary embodiment, the pulsed field mobility shift assay was used for screening for Protein Kinase A (PKA) inhibitors. Samples were drawn from a 96 well plate into a microfluidic device through a capillary. The plate contained 7 different concentration samples (0.15 μM, 0.32 μM, 0.63 μM, 1.54 μM, 2.52 μM, 5.05 μM, and 30.75 μM) of H9 at randomly chosen wells. Except for a single well containing the 30.75 μM concentration of H9, two wells contained each of the other six concentrations of H9. The last column of each row of the well plate contained a marker used to indicate the end of row. In this embodiment, the marker was 1 μM of 100% converted PKA product. Once in the reaction channel of the microfluidic device, the pressure driven velocity of the sample was set at 0.028 cm/s and the applied electric field was set to 997 V/cm. […] Each sample was sipped for 30 seconds separated by a 30 second buffer sip. […] From the data in FIGS. 8 and 9, the parameter C1/C0, which is the ratio of the fluorescence measured while the electric field is on to the fluorescence measured while the field is off, was determined for each of the seven H9 concentrations. That parameter was also measured in the absence of H9 to provide a baseline value. The deviation from the baseline value ΔC/C=((C1/C0)|H9sample−(C1/C0)|buffer), was evaluated for each H9 sample. […]

Broadly, the Ki is the dissociation constant of the complex between target and ligand, obtained from inhibition or displacement. Take `NCCNS(=O)(=O)c1cccc2cnccc12` [H9]: the inhibition constant Ki is 3.5 µM.

These data come from patent publication US9683994B2, “High throughput mobility shift” (Caliper Life Sciences, Inc., priority 2002, dated 2017).
